Measurements taken from patent publication US20260249027A1, “METERED DOSE INHALERS AND HIGH-DOSE SUSPENSIONS” (Kindeva Drug Delivery L.P., priority 2023, published 2026).

Experiments:
Assay type in all cases: physicochemical
[1] = Through life dose consistency of nintedanib (free base) pMDI suspensions (USP <601>, apparatus A)
Protocol: (§1) In the following examples, dose consistency was determined by in vitro measurement of single actuation dose content at start, middle and end of pMDI unit life in line with U.S. Pharmacopeia (USP)<601>, using a flow rate of 28.3 L/min and apparatus A. Aerodynamic particle size distribution of the pMDI suspension aerosols was measured at start of unit life in line with U.S. Pharmacopeia (USP)<601> using a Next Generation impactor without pre-separator (apparatus 6) and a flow rate of 30 L/min.
(§2) Suspensions of micronized nintedanib (free base) in HFA-152a or HFO-1234ze(E) were prepared. A first set of suspensions included no ethanol. A second set of suspensions included 2% ethanol by weight. Each suspension included an amount of nintedanib (free base) to provide a nominal delivered dose (ex-valve) of 0.5 mg/actuation (7.94 mg/mL) or 1.0 mg/actuation (15.87 mg/mL). Two further suspensions including no ethanol were prepared which included an amount of nintedanib (free base) to provide a nominal delivered dose (ex-valve) of 2.0 mg/actuation (20.0 mg/mL).
(§3) In total, ten suspension pMDI formulations were prepared in triplicate with sufficient fill weight to provide 60 actuations. The pMDI formulations containing 0.5 mg/actuation (7.94 mg/mL) and 1.0 mg/actuation (15.87 mg/mL) of nintedanib (free base) were filled into Kindeva FEP coated canisters, crimped with a Kindeva 63-μL valve. The pMDI formulations containing 2.0 mg/actuation (20.0 mg/mL) of nintedanib (free base) were filled into Kindeva FEP coated canisters, crimped with a Kindeva 100-μL valve. Each pMDI unit was sonicated for at least 10 minutes to disperse the suspended drug and tested with a Kindeva actuator having an exit orifice diameter (EOD) of 0.4 mm.
The through-life (TL) dose consistency of each pMDI unit was determined by measuring the mean ex-actuator delivered dose in micrograms of nintedanib (free base) (N=3) at the start of life (SoL), middle of life (MOL) and end of life (EoL) of the unit.

[2] = Aerodynamic particle size measurement of nintedanib (free base) pMDI suspensions (Next Generation impactor)
From the text: In general, aerosols with mass median aerodynamic diameters (MMAD) of at least 1 μm but less than 5 μm in size are suitable for effective deep lung deposition for therapeutic effect. Herein, fine particle fraction (FPF) is defined as the percentage of the ex-actuator delivered API having a MMAD of less than 5 μm when tested in vitro. Herein, “ex-actuator” delivered dose is used to describe the amount of API delivered past the actuator of a pMDI. Therefore, an aerosol with a high FPF is typically suitable for deep lung deposition.
as §1, §2
as §3, with “mm. The mass median aerodynamic diameter (MMAD) and fine particle fraction (FPF) of each pMDI unit were measured by Next Generation cascade impaction (N=3) for each pMDI suspension.” for “mm.”

[3] = Additional through life dosing content uniformity of nintedanib suspension in HFO-1234ze(E), coated 63-microliter valve; conditions: nominal 1 mg/actuation (15.9 mg/mL), HFO-1234ze(E) without ethanol
Protocol: as §1
(§4) A suspension of nintedanib was prepared in HFO-1234ze(E). The concentration of nintedanib (15.9 mg/mL) was selected to provide a nominal actuation dose of 1 mg/actuation from a 63-microliter valve. The bottle emptier, tank, spring, and ferrule components of the valves were coated with a fluoropolymer coating according to the general process described in Example 2 of U.S. Patent Application Publication 2017/0152396 A1 (Jinks et al., hereby incorporated by reference). The formulation was mixed with a high shear mixer and cold filled into 16 mL FEP-coated canisters.
(§5) Average fine particle mass (<5 μm) was 434 μg/actuation.

[4] = Fine particle mass of nintedanib suspension in HFO-1234ze(E), coated 63-microliter valve; conditions: nominal 1 mg/actuation (15.9 mg/mL), HFO-1234ze(E) without ethanol
Protocol: as §1, §4, §5

[5] = nominal ex-valve 0.5 mg/act, HFA152a/2% EtOH (w/w), 63-μL valve
[6] = nominal ex-valve 0.5 mg/act, HFA152a, 63-μL valve
[7] = nominal ex-valve 0.5 mg/act, HFO1234ze(E)/2% EtOH (w/w), 63-μL valve
[8] = nominal ex-valve 0.5 mg/act, HFO1234ze(E), 63-μL valve
[9] = nominal ex-valve 1.0 mg/act, HFA152a/2% EtOH (w/w), 63-μL valve
[10] = nominal ex-valve 1.0 mg/act, HFA152a, 63-μL valve
[11] = nominal ex-valve 1.0 mg/act, HFO1234ze(E)/2% EtOH (w/w), 63-μL valve
[12] = nominal ex-valve 1.0 mg/act, HFO1234ze(E), 63-μL valve
[13] = nominal ex-valve 2.0 mg/act, HFA152a, 100-μL valve
[14] = nominal ex-valve 2.0 mg/act, HFO1234ze(E), 100-μL valve
[15] = nominal ex-valve 0.5 mg/act, HFA-152a/2% EtOH (w/w), 63-μL valve
[16] = nominal ex-valve 0.5 mg/act, HFA-152a, 63-μL valve
[17] = nominal ex-valve 0.5 mg/act, HFO-1234ze(E)/2% EtOH (w/w), 63-μL valve
[18] = nominal ex-valve 0.5 mg/act, HFO-1234ze(E), 63-μL valve
[19] = nominal ex-valve 1.0 mg/act, HFA-152a/2% EtOH (w/w), 63-μL valve
[20] = nominal ex-valve 1.0 mg/act, HFA-152a, 63-μL valve
[21] = nominal ex-valve 1.0 mg/act, HFO-1234ze(E)/2% EtOH (w/w), 63-μL valve
[22] = nominal ex-valve 1.0 mg/act, HFO-1234ze(E), 63-μL valve
[23] = nominal ex-valve 2.0 mg/act, HFA-152a, 100-μL valve
[24] = nominal ex-valve 2.0 mg/act, HFO-1234ze(E), 100-μL valve

COC(=O)c1ccc2c(c1)NC(=O)/C2=C(\Nc1ccc(N(C)C(=O)CN2CCN(C)CC2)cc1)c1ccccc1 [nintedanib (free base), nintedanib]
effect of addition of ethanol on through unit life ex-actuator delivered dose consistency ([1]; 2% ethanol by weight, HFA-152a or HFO-1234ze(E)): did not always substantially improve | through unit life ex-actuator delivered dose consistency ([1]; HFA-152a or HFO-1234ze(E) with and without 2% ethanol by weight): relatively consistent | EoL mean delivered dose [1, 5]: 383.1 μg/act | MoL mean delivered dose [1, 5]: 364.6 μg/act | SoL mean delivered dose [1, 5]: 452.4 μg/act | TL mean delivered dose [1, 5]: 400.1 μg/act | EoL mean delivered dose [1, 6]: 335.9 μg/act | MoL mean delivered dose [1, 6]: 360.0 μg/act | SoL mean delivered dose [1, 6]: 468.9 μg/act | TL mean delivered dose [1, 6]: 388.3 μg/act | EoL mean delivered dose [1, 7]: 378.0 μg/act | MoL mean delivered dose [1, 7]: 385.9 μg/act | SoL mean delivered dose [1, 7]: 431.1 μg/act | TL mean delivered dose [1, 7]: 398.3 μg/act | EoL mean delivered dose [1, 8]: 380.5 μg/act | MoL mean delivered dose [1, 8]: 372.8 μg/act | SoL mean delivered dose [1, 8]: 401.8 μg/act | TL mean delivered dose [1, 8]: 385.0 μg/act | EoL mean delivered dose [1, 9]: 818.8 μg/act | MoL mean delivered dose [1, 9]: 773.1 μg/act | SoL mean delivered dose [1, 9]: 940.6 μg/act | TL mean delivered dose [1, 9]: 844.2 μg/act | EoL mean delivered dose [1, 10]: 890.2 μg/act | MoL mean delivered dose [1, 10]: 759.1 μg/act | SoL mean delivered dose [1, 10]: 1020.0 μg/act | TL mean delivered dose [1, 10]: 889.8 μg/act | EoL mean delivered dose [1, 11]: 818.5 μg/act | MoL mean delivered dose [1, 11]: 824.9 μg/act | SoL mean delivered dose [1, 11]: 926.7 μg/act | TL mean delivered dose [1, 11]: 856.7 μg/act | EoL mean delivered dose [1, 12]: 947.3 μg/act | MoL mean delivered dose [1, 12]: 962.2 μg/act | SoL mean delivered dose [1, 12]: 947.8 μg/act | TL mean delivered dose [1, 12]: 952.4 μg/act | EoL mean delivered dose [1, 13]: 1954.6 μg/act | MoL mean delivered dose [1, 13]: 1876.0 μg/act | SoL mean delivered dose [1, 13]: 2205.7 μg/act | TL mean delivered dose [1, 13]: 2012.2 μg/act | EoL mean delivered dose [1, 14]: 2282.4 μg/act | MoL mean delivered dose [1, 14]: 1884.0 μg/act | SoL mean delivered dose [1, 14]: 1561.8 μg/act | TL mean delivered dose [1, 14]: 1909.4 μg/act | MMAD values of aerosols, suitability ([2]; HFA-152a or HFO-1234ze(E), with and without ethanol, in-vitro): in an appropriate respirable range | FPF and MMAD without ethanol compared with corresponding suspensions with 2% ethanol by weight ([2]; HFA-152a or HFO-1234ze(E), all nominal doses): consistently produced greater FPFs and smaller MMADs | Mean FPF [2, 15]: 26.9% | Mean MMAD [2, 15]: 3.65 μm | Mean FPF [2, 16]: 33.7% | Mean MMAD [2, 16]: 3.74 μm | Mean FPF [2, 17]: 36.8% | Mean MMAD [2, 17]: 3.50 μm | Mean FPF [2, 18]: 60.0% | Mean MMAD [2, 18]: 2.88 μm | Mean FPF [2, 19]: 18.0% | Mean MMAD [2, 19]: 4.74 μm | Mean FPF [2, 20]: 23.8% | Mean MMAD [2, 20]: 5.01 μm | Mean FPF [2, 21]: 29.3% | Mean MMAD [2, 21]: 4.20 μm | Mean FPF [2, 22]: 44.4% | Mean MMAD [2, 22]: 3.66 μm | Mean FPF [2, 23]: 16.7% | Mean MMAD [2, 23]: 7.47 μm | Mean FPF [2, 24]: 34.8% | Mean MMAD [2, 24]: 4.08 μm | FPF and MMAD in HFO-1234ze(E) compared with corresponding suspensions in HFA-152a ([2]; with or without ethanol): consistently produced greater FPFs and smaller MMADs | Through life dosing content uniformity, trend [3]: no trending between start, middle, and end of life | average dose (through life dosing content uniformity) [3]: 950 μg/actuation | Average fine particle mass (<5 μm) [4]: 434 μg/actuation
